Read-outs that look alike come from different tables or passages of the source. Peptide text beside a SMILES is read from it. * marks the point of attachment. Cbz = O=C(OCc1ccccc1)*
Key:
[1] = rats; Lambert et al. [1994]; cited from earlier work
[2] = Screening of anticonvulsant activity; type: in vivo, mice; details: for anticonvulsant activity in words: overall finding of the study; for anticonvulsant activity: ip administration (300 mg) to mice
Protocol: Screening of Anticonvulsant Activity
Compounds I-XI were screened in carworth farm #1 mice (ip--in a volume of 0.01 mL/g of body weight) and sprague-Dawley rats (po--in a volume of 0.004 mL/g of body weight) for their anticonvulsant activity and neurotoxicity by the NIH epilepsy Branch [Porter et al, 1984]. The screening procedure involved the following:
1) the maximal electroshock (MES) test, which measures seizure spread; 2) the subcutaneous pentylenetetrazol test (sc Met test) which measures seizure threshold; and 3) the rotored ataxia test which assesses neurotoxicity.
Applicants therefore decided to derivatize glycinamide and the above dipeptides by synthesizing their N-acetyl and N'-benzyl derivatives (compounds IV-VIII). […] Therefore, this compound was further analyzed quantitatively and its ED50 data and protective indices in comparison to phthaloyl glycinamide and valproyl glycinamide--TV 1901 [17] are presented in Table 2. As a consequence of their anticonvulsant activity, the pharmacokinetics of compounds VII and IX were investigated following iv administration (400 mg) to six dogs, and the mean plasma levels of compounds VII and IX are presented in FIGS. 1 and 2, respectively.

[3] = Pharmacokinetic analysis following iv administration to dogs; type: in vivo; details: dog, in vivo
Protocol: The experiments were carried out on six male dogs (mongrels), ranging in weight between 18 and 22 kg. In a randomized cross over design, each dog was injected intravenously (in 1.5 mL of DMSO) with a dose of 400 mg of N-acetyl,N'-benzylglycinamide (VII), 404 mg (on dose equivalent to 400 mg of compound VII) of Z-glycinamide (IX) and 406 mg of Z-glycine (VIII). Urine was collected systematically for 12 hours after dosing, by means of an indwelling catheter.
Venous blood samples (6 mL) were collected via an indwelling catheter (from the cephalic vein) at specified intervals following injection (0, 5, 10, 20, 30, 45 minutes and 1, 1.5, 2, 2.5, 3, 4, 5, 6, 7, 8, 10 and 12 hours respectively). The plasma was then immediately separated by centrifugation at 3000 g for 15 minutes and stored at -20° C. Before each assay, the plasma was allowed to reach room temperature, vortexed, centrifuged and the residual clot removed.
Urine samples were collected via a urine catheter at specified intervals following injection (0, 1, 2, 3, 4, 5, 6, 7, 8, 9, 10 and 12 hours respectively), the samples volume were measured and the urine samples were stored at -20° C. Plasma and urine levels of compounds VII, VIII and IX were then assayed by a HPLC assay described herein below.
HPLC Assay for Monitoring N-acetyl,N'-benzylglycinamide (VII) and N-benzyloxycarbonylglycinamide (IX) in Dog Plasma and Urine
Plasma samples are allowed to reach room temperature, vortexed and centrifuged. The plasma was then assayed as follows:
To 0.5 mL of plasma, 10 μg of an internal standard (N-benzyl-oxycarbonylglycinamide (IX)) and 4 mL of tert-butylmethylether were added. The mixture was vigorously vortexed for 30 seconds, centrifuged for 10 minutes at 3000 g, the organic phase was separated and evaporated to dryness (using a vortex evaporator). To the residue, 80 μl of methanol were added, the mixture was vortexed and 30 μl were injected into the HPLC (Schimadzu SCL-10A with a UV-visible detector model SPD-10A).
Urine samples are allowed to reach room temperature, vortexed and centrifuged. The urine was then assayed as follows:
To 0.25 mL of urine, 10 μg of internal standard (N-benzyl-oxycarbonylglycinamide (IX)), 100 μl of hydrochloric acid solution (1 N) and 4 mL of tert-butylmethylether were added. The mixture was vigorously vortexed for 30 seconds and centrifuged for 10 minutes at 3000 g, the organic phase was separated and transferred to another test tube containing 0.5 mL of sodium hydroxide solution (1N), the mixture was vigorously vortexed for 30 seconds, centrifuged for 10 minutes at 3000 g, the organic phase was separated and evaporated to dryness (using a vortex evaporator). To the residue, 80 μl of methanol were added, the mixture was vortexed and 30 μl were injected into the HPLC.
HPLC conditions: HPLC column; Hypersil ODS (C-18) 5μ, 4.6×150 mm; Wavelength: 258 nm; Mobile phase: 60% water, 40% methanol and 0.01% trifluoroacetic acid.
The same assay was used for monitoring N-benzyloxycarbonyl-glycinamide (IX) in dog plasma and dog urine using N-acetyl,N'-benzylglycinamide as an internal standard.
HPLC Assay for Monitoring Z-glycine (VIII) in Dog Plasma and Urine
To 0.5 mL of plasma, 10 μg of internal standard (Z-GABA), 100 μl of hydrochloric acid solution (1N) and 5 mL of tert-butylmethylether were added. The mixture was vigorously vortexed for 30 seconds, centrifuged for 10 minutes at 3000 g, the organic phase was separated and evaporated to dryness (using a vortex evaporator). To the residue, 100 μl of mobile phase were added, the mixture was vortexed and 30 μl were injected to the HPLC.
Urine samples was allowed to reach room temperature, vortexed and centrifuged. The urine was then assayed as follows:
To 0.1 mL of urine, 30 μg of internal standard (Z-GABA) and 5 mL of tert-butylmethylether were added. The mixture was vigorously vortexed for 30 seconds, centrifuged for 10 minutes at 3000 g, the organic phase was separated off. […]

[4] = mice; Freed, 1985; cited from earlier work
[5] = electroshock, metrazole and homocysteine; Freed et al, 1979; cited from earlier work
[6] = in vivo, cited from earlier work
[7] = mice and rats / rodents; cited from earlier work
[8] = ip, mice, cited from earlier work; for sc Met, ED50: data from Salach et al (1994), Hadad and Bialer (1995)
[9] = dogs, iv, mean, Table 3, cited from earlier work; for CL / MRT / Vss / Vβ / t1/2: data from Salach et al 1994, Hadad and Bialer 1995
[10] = ip, mice; data from Salach et al (1994), Hadad and Bialer (1995); cited from earlier work
[11] = mice; Kohn et al 1988, 1990, 1991; Conley and Kohn, 1987; cited from earlier work
[12] = ip, mice; data from Salach et al (1994), Hadad and Bialer (1995); cited from earlier work; remark: listed apart in the source

O=C(O)CNC(=O)OCc1ccccc1 [compound VIII, N-benzyloxycarbonylglycine]
anticonvulsant activity relative to glycine [1]: far more active than glycine | anticonvulsant activity in words [2]: lack of activity | anticonvulsant activity in words ([2]; listed as Z-glycine): inactive in this study | fm (fraction metabolized of Z-glycinamide to Z-glycine) [3]: 80.1 ± 13.6% | half-life [3]: 0.6 ± 0.14 h | pharmacokinetics and elimination in words [3]: its t1/2 was the shortest | Mu/D (fraction of Z-glycine excreted in the urine as a metabolite of Z-glycinamide) ([3]; 720 min): 20 ± 19.8% | clearance ([3]; CL): 90 mL/min | MRT ([3]; MRT): 0.8 ± 0.1 h | Vd ([3]; VSS / volume of distribution): 0.2 L/kg | Vd ([3]; Vss): 4.9 ± 0.6 L | Vd ([3]; Vβ): 4.5 ± 0.8 L

C[N+](C)(C)CC(=O)O [betaine, N,N,N-trimethyl glycine]
antagonism of strychnine-induced seizures [4]: antagonized | block of induction of convulsions [5]: block the induction of convulsions

NCC(=O)O [glycine]
effect upon oral or systemic administration [6]: neither GABA nor glycine are effective upon oral or systemic administration | blood-brain barrier passage [6]: does not readily cross the blood-brain barrier

NCCCC(=O)O [GABA]
effect upon oral or systemic administration [6]: neither GABA nor glycine are effective upon oral or systemic administration | blood-brain barrier passage [6]: inability to cross the blood brain barrier

CCC=C(CCC)C(=O)NCC(N)=O [N-2-enevalproyl glycinamide]
anticonvulsant activity in words [7]: good anticonvulsant activity in rodents

CC(C)C(C(=O)NCC(N)=O)C(C)C [diisopropyl acety glycinamide]
anticonvulsant activity in words [7]: good anticonvulsant activity in rodents

CC1(C)C(C(=O)NCC(N)=O)C1(C)C [tetramethylcyclopropylcarbonyl glycinamide]
anticonvulsant activity in words [7]: good anticonvulsant activity in rodents

CCC(C)C(CC)C(=O)NCC(N)=O (centres unmarked) [valnoctyl glycinamide]
anticonvulsant activity in words [7]: good anticonvulsant activity in rodents

CCCC(CCC)C(=O)NCC(N)=O [valproyl glycinamide, N-valproyl glycinamide]
anticonvulsant activity in words [7]: good anticonvulsant activity in both mice and rats | PI, sc Met (Protective index, ratio of TD50 to ED50) ([8]; data from Hadad and Bialer (1995)): 2.9 | sc Met, ED50 [8]: 127 mg/kg | CL [9]: 3 ± 0.8 L/h | MRT [9]: 4.6 ± 0.7 h | Vss [9]: 12 ± 3 L | Vβ [9]: 11 ± 3 L | t1/2 [9]: 2.7 ± 0.5 h | MES, ED50 [10]: 152 mg/kg | PI, MES (Protective index, ratio of TD50 to ED50) [10]: 2.4

CC(=O)NC(C(=O)NCc1ccccc1)c1ccccc1 (racemic) [N-acetyl,N'-benzyl DL-phenyl glycinamide]
anticonvulsant activity in MES test [11]: marked anticonvulsant activity

CC(=O)NCC(=O)NCC(N)=O [compound VI, N-Acetylglycylglycinamide]
anticonvulsant activity in words [2]: inactive as anticonvulsant

NCC(=O)NCC(=O)O [I, Glycylglycine] (H-Gly-Gly-OH)
anticonvulsant activity [2]: did not show anticonvulsant activity

O=C(O)CNC(=O)CNC(=O)OCc1ccccc1 [X, N-benzyloxycarbonyl glycylglycine] (Cbz-Gly-Gly-OH)
anticonvulsant activity in words [2]: inactive as anticonvulsant

CC(=O)N[C@@H](C(=O)NCc1ccccc1)c1ccc[nH]1 (racemic) [(R,S)-2-acetamido-N-benzyl-2-pyrolacetamide]
anticonvulsant activity in MES test [11]: more potent than the analogous alanine and phenylglycine derivatives

CNCC(=O)O [sarcosine, N-methylglycine]
antagonism of strychnine-induced seizures [4]: antagonized

NCCCC(=O)NCC(N)=O [III, Gaboylglycinamide]
anticonvulsant activity [2]: did not show anticonvulsant activity

NC(=O)CNC(=O)CNC(=O)OCc1ccccc1 [XI, N-Benzyloxycarbonyl Glycylglycinamide] (Cbz-Gly-Gly-NH2)
anticonvulsant activity in words [2]: inactive as anticonvulsant

NCC(=O)NCC(N)=O [II, Glycylglycinamide]
anticonvulsant activity [2]: did not show anticonvulsant activity

CN(C)CC(=O)O [dimethylglycine]
antagonism of strychnine-induced seizures [4]: antagonized

CC(=O)NC(C)C(=O)NCc1ccccc1 (racemic) [N-acetyl,N'-benzyl DL-alaninamide]
anticonvulsant activity in MES test [11]: marked anticonvulsant activity

NC(=O)CN1C(=O)c2ccccc2C1=O [phthaloyl glycinamide, phthaloylglycinamide]
sc Met, ED50 [8]: > 400 mg/kg | CL [9]: 9 L/h | MRT [9]: 4.6 ± 0.9 h | Vss [9]: 46 ± 13 L | Vβ [9]: 48 ± 13 L | t1/2 [9]: 3.4 ± 0.7 h | fe (fraction excreted unchanged in urine) ([9]; data from Salach et al 1994, 720 min): 7.0 ± 0.7% | MES, ED50 [10]: 94 mg/kg | PI, MES (Protective index, ratio of TD50 to ED50) [10]: > 64 | Neurotoxicity, TD50 [12]: > 600 mg/kg
